According to patent US7968093B2, “Fully human antibodies directed against the human insulin-like growth factor-1 receptor” (ImClone LLC, priority 2003, dated 2011):

Key:
[1] = system: HT-29 human colon carcinoma; experiment: HT-29 xenograft, A12 with CPT-11 or paclitaxel; format: in vivo, nu/nu mice
Method: […] nu/nu mice were injected subcutaneously with HT-29 human colon carcinoma cell suspension, at 5×10^6 cells in 0.4 ml mixed 1:1 with Matrigel. […] All treatments were administered by intraperitoneal injection.
Treatment continued for six weeks and tumor measurements were recorded twice weekly using the formula Volume=(π/6)l×w^2. At day 21 four animals per group were sacrificed and the tumors resected for histological evaluation. Treatment and tumor measurements continued on the remaining animals until day 40. At that time final tumor measurements were recorded, animals sacrificed, and four per group had tumor resected for endpoint histological evaluation.

[2] = system: MAPK; experiment: IGF-I mediated MAPK phosphorylation, western blot; format: cell-based, human; conditions: MCF7 cells; IGF-I stimulated
Method: To visualize the inhibitory effect of the anti-IGF-IR antibodies on IGF-I signaling, receptor auto-phosphorylation and downstream effector molecule phosphorylation analysis was performed in the presence or absence of antibody A12 or 2F8. The MCF7 human breast cancer cell line was selected for use due to its high IGF-IR density. Cells were plated into 10 cm or 6 well culture dishes and grown to 70-80% confluence. The monolayers were then washed twice in PBS and cultured overnight in serum free defined medium. Anti-IGF-IR antibody was then added in fresh serum-free media (100 nM-10 nM) and incubated cells 30 minutes before addition of ligand (10 nM). Cells were incubated with ligand for 10 minutes, then placed on ice and washed with ice-cold PBS. […] Tyrosine phosphorylated protein was detected on the blot using an anti-p-tyrosine antibody (Cell Signaling #9411) and an anti-mouse-HRP secondary antibody. IGF-IR was detected with monoclonal antibody C-20 (Santa Cruz). For Akt phosphorylation, phospho-Akt was detected with antibody #559029 and total Akt with #559028 (BD Pharmingen). For MAPK phosphorylation, phospho-p44/42 was detected with #9101 and total p44/42 with #9102 (Cell Signaling Tech.). […]

[3] = system: BxPC-3 human pancreatic carcinoma cells; experiment: BxPC-3 xenograft, A12 with CPT-11 or gemcitabine; format: in vivo, athymic nu/nu mice
Method: Athymic nu/nu mice were injected subcutaneously with 2×10^6 BxPC-3 human pancreatic carcinoma cells mixed 1:1 with Matrigel. […] All treatments were administered by intraperitoneal injection. Tumor measurements were recorded twice weekly using the formula Volume=(π/6)l×w^2.
At day 18 three animals per group were sacrificed and the tumors resected for midpoint histological evaluation. Treatment and tumor measurements continued on the remaining animals until day 44 with the exception of the TBS group. […] At termination of the study final tumor measurements were recorded, animals sacrificed, and four per group had tumors resected for endpoint histological evaluation.

[4] = system: human colorectal cancer line HT-29; experiment: HT-29 xenograft, A12 monotherapy; format: in vivo, mouse
Method: We were interested to determine if the anti-IGF-IR antibodies were capable of inhibiting human tumor growth in vivo in a nude mouse xenograft model. Tumors were induced in 3-4 week old athymic nude (nu/nu) mice by subcutaneous injection of 2-3 million viable HT-29 human colorectal cancer cells in cell culture medium. The tumors were allowed to establish and antibody treatment started when the tumor volume reached 200 mm^3. Ten animals were injected with tumor cells per treatment group. Antibody was injected intraperitoneally (IP) every three days at 1 mg or 0.5 mg in 0.5 ml TBS. The drug irenotecan (CPT-11) (LKT Laboratories) was injected IP (100 mg/kg) once a week for four weeks from the initiation of antibody treatment. Control animals received a class matched irrelevant human IgG antibody. Tumor measurements were performed at regular intervals using Vernier calipers, measuring height, width, and length and calculated to determine the total tumor volume. The study was terminated when control tumors reached 3000 mm^3.
Tumors were induced as previously described, and antibody treatment initiated once tumors were established (200 mm^3 size). Antibody treatment was then given at a concentration of 1 mg, 100 μg, or 10 μg every three days throughout the duration of the experiment. Ten animals were used per treatment group and control animals received a class match IgG control antibody.

[5] = biological target: T1, IGF-IR on MCF7 cells (Homo sapiens, UniProt P08069); experiment: IGF-IR surface receptor density by FACS; format: cell-based; conditions: MCF7 cells incubated at 4° C.
T1 construct: endogenous in cells
Method: IGF-IR surface receptor density was determined by FACS. […] Cells were washed in ice-cold PBS/5% BSA twice, and 1×10^6 cells were aliquoted to staining tubes and placed on ice. An IGF-IR alpha-polypeptide specific, non-blocking mouse monoclonal antibody (Ab-1, NeoMarkers, Fremont, Calif.), was then incubated with cells at 4° C. for 2 h. After PBS/BSA washes, cells were incubated with anti-mouse IgG phycoerythrin-conjugated secondary antibody (PharMingen, BD Biosciences) for 1 h on ice. After PBS/BSA wash, cells were analyzed by fluorescence-activated cell-sorting assay using a FACSvantage SE flow cytometer (BD Bioscience).

[6] = biological target: IGF-IR (Homo sapiens, UniProt P08069); experiment: IGF-I mediated IGF-IR auto-phosphorylation, western blot; format: cell-based; design: endogenous in cells; HT-29; BxPC-3; HEL
[7] = system: mouse IGF-IR; experiment: FACs binding analysis to mouse cell lines; format: cell-based; conditions: IGF-IR negative mouse embryo fibroblasts (R- cells)

“A12: fully human IgG1 anti-IGF-IR antibody, lambda light chain; VH SEQ ID NO:2, VL SEQ ID NO:10; affinity matured from 2F8” showed a T/C % ([1]; day 12, ip, A12 1 mg 3 times per week, irinotecan 2 mg or paclitaxel 121 μg every 7 days) of 69%, a T/C % ([1]; day 15, same regimens) of 62% and a T/C % ([1]; day 19, same regimens) of 64%. The T/C % ([1]; day 22, same regimens) was 58%, the T/C % ([1]; day 26, same regimens) was 62% and the T/C % ([1]; day 29, same regimens) was 61%. The T/C % ([1]; day 33, same regimens) was 58%, the T/C % ([1]; day 36, same regimens) was 53% and the T/C % ([1]; day 40, same regimens) was 54%. For the same substance, the “inhibition of growth of HT-29 xenografts compared to TBS control” value ([1]; single agent) was “significantly (P<0.02) inhibited”, the “inhibition of MAPK phosphorylation” value [2] was “considerably inhibited” and the “animals with partial tumor regressions” value ([3]; after five weeks of treatment) was 2 of eight. For the same substance, the “Regressions (individual tumor volumes < day 1 of treatment)” value ([3]; day 19, animals regressing/animals in group) was 2/12, the T/C % ([3]; day 19, ip, A12 1 mg 3 times per week, irinotecan 1 mg or gemcitabine 2.5 mg every 7 days) was 57% and the “Regressions (individual tumor volumes < day 1 of treatment)” value ([3]; day 23) was 2/9. The T/C % ([3]; day 23, same regimens) was 49%, the “Regressions (individual tumor volumes < day 1 of treatment)” value ([3]; day 26) was 2/9 and the T/C % ([3]; day 26, same regimens) was 40%. The “Regressions (individual tumor volumes < day 1 of treatment)” value ([3]; day 30) was 2/8, the T/C % ([3]; day 30, same regimens) was 40% and the “Regressions (individual tumor volumes < day 1 of treatment)” value ([3]; day 32) was 2/8. The T/C % ([3]; day 32, same regimens) was 39%, the “Regressions (individual tumor volumes < day 1 of treatment)” value ([3]; day 37) was 2/8 and the “Regressions (individual tumor volumes < day 1 of treatment)” value ([3]; day 41) was 2/8. For the same substance, the “Regressions (individual tumor volumes < day 1 of treatment)” value ([3]; day 44) was 2/8, the anti-tumor activity ([4]; 100 μg every three days) was “Anti-tumor activity was also observed” and the “reduction in tumor growth compared to control” value ([4]; every three days, P<0.05, dose of this value not stated (1 mg, 100 μg, 10 μg tested)) was 74%. The “shift of surface IGF-IR fluorescence intensity” value [5] was “shift was not seen”, the “inhibition of IGF-IR auto-phosphorylation” value ([6]; BxPC-3 pancreatic cancer cells) was “inhibited auto-phosphorylation of IGF-IR” and the “inhibition of IGF-IR auto-phosphorylation” value ([6]; HT-29 colorectal cancer cells) was “inhibited auto-phosphorylation of IGF-IR”. The “agonist activity: receptor phosphorylation by antibody alone” value ([6]; MCF7 cells, serum deprived, no ligand) was “did not induce receptor phosphorylation”, the “block of IGF-IR phosphorylation” value ([6]; MCF7 cells, 10 nM IGF-I) was “nearly completely blocked phosphorylation” and the FACs binding [7] was “failed to bind”.
